# Tests used:
# Assay in all cases: relative viability (nuclei count vs DMSO), 5 days (fraction); higher = more cells survive
# IU1-47 + Olaparib = compound: CC1=CC(=C(N1C2=CC=C(C=C2)Cl)C)C(=O)CN3CCCCC3 [IU1-47] + O=C(c1cc(Cc2n[nH]c(=O)c3ccccc23)ccc1F)N1CCN(C(=O)C2CC2)CC1 [Olaparib] (partner 8 µM)
# Summary of the method: (§1)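 Values are medians from duplicate plates. Each reflects relative viability, defined as the nuclei count of treated wells over that of vehicle wells. Lung cancer cell lines in 1536-well plates were pin-tool dosed one day after seeding with one drug alone or with a fixed anchor-drug dose plus five library-drug doses (not always all listed) in √10 steps, then fixed, stained and imaged at 4× after 5 days.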
# FG-4592 + Vorinostat = compound: Cc1nc(C(=O)NCC(=O)O)c(O)c2ccc(Oc3ccccc3)cc12 [FG-4592] + O=C(CCCCCCC(=O)Nc1ccccc1)NO [Vorinostat] (partner 1 µM)
# Summary of the method: as §1
# FG-4592 + Pictilisib = compound: Cc1nc(C(=O)NCC(=O)O)c(O)c2ccc(Oc3ccccc3)cc12 [FG-4592] + CS(=O)(=O)N1CCN(Cc2cc3nc(-c4cccc5[nH]ncc45)nc(N4CCOCC4)c3s2)CC1 [Pictilisib] (partner 1 µM)
# Summary of the method: as §1
# IU1-47 + Pemetrexed = compound: CC1=CC(=C(N1C2=CC=C(C=C2)Cl)C)C(=O)CN3CCCCC3 [IU1-47] + Nc1nc2[nH]cc(CCc3ccc(C(=O)N[C@@H](CCC(=O)O)C(=O)O)cc3)c2c(=O)[nH]1 [Pemetrexed] (partner 0.2 µM)
# Summary of the method: as §1
cell line,measurement,setting,value
IA-LM,relative viability,IU1-47 + Olaparib; first compound 0.08 µM,0.748
same,relative viability,IU1-47 + Olaparib; first compound 0.253 µM,0.863
same,relative viability,IU1-47 + Olaparib; first compound 0.8 µM,0.958
same,relative viability,IU1-47 + Olaparib; first compound 2.53 µM,0.979
same,relative viability,IU1-47 + Olaparib; first compound 8 µM,0.903
same,relative viability,FG-4592 + Vorinostat; first compound 0.08 µM,0.826
same,relative viability,FG-4592 + Vorinostat; first compound 0.253 µM,0.83
same,relative viability,FG-4592 + Vorinostat; first compound 0.8 µM,0.814
same,relative viability,FG-4592 + Vorinostat; first compound 2.53 µM,0.943
same,relative viability,FG-4592 + Vorinostat; first compound 8 µM,1.04
same,relative viability,FG-4592 + Pictilisib; first compound 0.08 µM,0.358
same,relative viability,FG-4592 + Pictilisib; first compound 0.253 µM,0.291
same,relative viability,FG-4592 + Pictilisib; first compound 0.8 µM,0.308
same,relative viability,FG-4592 + Pictilisib; first compound 2.53 µM,0.295
same,relative viability,FG-4592 + Pictilisib; first compound 8 µM,0.201
LC-2-ad,relative viability,IU1-47 + Olaparib; first compound 0.08 µM,0.726
same,relative viability,IU1-47 + Olaparib; first compound 0.253 µM,0.711
same,relative viability,IU1-47 + Olaparib; first compound 0.8 µM,0.673
same,relative viability,IU1-47 + Olaparib; first compound 8 µM,0.732
same,relative viability,FG-4592 + Vorinostat; first compound 0.08 µM,0.715
same,relative viability,FG-4592 + Vorinostat; first compound 0.253 µM,0.645
same,relative viability,FG-4592 + Vorinostat; first compound 0.8 µM,0.782
same,relative viability,FG-4592 + Vorinostat; first compound 2.53 µM,0.637
same,relative viability,FG-4592 + Vorinostat; first compound 8 µM,0.683
same,relative viability,IU1-47 + Pemetrexed; first compound 0.08 µM,0.284
same,relative viability,IU1-47 + Pemetrexed; first compound 0.253 µM,0.283
same,relative viability,IU1-47 + Pemetrexed; first compound 0.8 µM,0.268
same,relative viability,IU1-47 + Pemetrexed; first compound 8 µM,0.262
same,relative viability,FG-4592 + Pictilisib; first compound 0.08 µM,0.487
same,relative viability,FG-4592 + Pictilisib; first compound 0.253 µM,0.372
same,relative viability,FG-4592 + Pictilisib; first compound 0.8 µM,0.456
same,relative viability,FG-4592 + Pictilisib; first compound 2.53 µM,0.414
same,relative viability,FG-4592 + Pictilisib; first compound 8 µM,0.374
LCLC-97TM1,relative viability,IU1-47 + Olaparib; first compound 0.08 µM,0.44
same,relative viability,IU1-47 + Olaparib; first compound 0.253 µM,0.461
same,relative viability,IU1-47 + Olaparib; first compound 0.8 µM,0.352
same,relative viability,IU1-47 + Olaparib; first compound 8 µM,0.21
same,relative viability,FG-4592 + Vorinostat; first compound 0.08 µM,0.63
same,relative viability,FG-4592 + Vorinostat; first compound 0.253 µM,0.737
same,relative viability,FG-4592 + Vorinostat; first compound 2.53 µM,0.328
same,relative viability,FG-4592 + Vorinostat; first compound 8 µM,0.671
same,relative viability,IU1-47 + Pemetrexed; first compound 0.08 µM,0.173
same,relative viability,IU1-47 + Pemetrexed; first compound 0.253 µM,0.15
same,relative viability,IU1-47 + Pemetrexed; first compound 0.8 µM,0.154
same,relative viability,IU1-47 + Pemetrexed; first compound 8 µM,0.172
same,relative viability,FG-4592 + Pictilisib; first compound 0.08 µM,0.22
same,relative viability,FG-4592 + Pictilisib; first compound 0.253 µM,0.192
same,relative viability,FG-4592 + Pictilisib; first compound 0.8 µM,0.138
same,relative viability,FG-4592 + Pictilisib; first compound 8 µM,0.169
LCLC-103H,relative viability,IU1-47 + Olaparib; first compound 0.08 µM,0.794
same,relative viability,IU1-47 + Olaparib; first compound 0.253 µM,0.831
same,relative viability,IU1-47 + Olaparib; first compound 0.8 µM,0.779
same,relative viability,IU1-47 + Olaparib; first compound 2.53 µM,0.77
same,relative viability,IU1-47 + Olaparib; first compound 8 µM,0.737
same,relative viability,FG-4592 + Vorinostat; first compound 0.08 µM,0.75
same,relative viability,FG-4592 + Vorinostat; first compound 0.253 µM,0.733
same,relative viability,FG-4592 + Vorinostat; first compound 0.8 µM,0.677
same,relative viability,FG-4592 + Vorinostat; first compound 2.53 µM,0.707
same,relative viability,FG-4592 + Vorinostat; first compound 8 µM,0.747
same,relative viability,IU1-47 + Pemetrexed; first compound 0.08 µM,0.474
same,relative viability,IU1-47 + Pemetrexed; first compound 0.253 µM,0.464
same,relative viability,IU1-47 + Pemetrexed; first compound 0.8 µM,0.469
same,relative viability,IU1-47 + Pemetrexed; first compound 2.53 µM,0.449
same,relative viability,IU1-47 + Pemetrexed; first compound 8 µM,0.519
same,relative viability,FG-4592 + Pictilisib; first compound 0.08 µM,0.5
same,relative viability,FG-4592 + Pictilisib; first compound 0.253 µM,0.512
same,relative viability,FG-4592 + Pictilisib; first compound 0.8 µM,0.509
same,relative viability,FG-4592 + Pictilisib; first compound 2.53 µM,0.714
same,relative viability,FG-4592 + Pictilisib; first compound 8 µM,0.654
LK-2,relative viability,IU1-47 + Olaparib; first compound 0.08 µM,0.935
same,relative viability,IU1-47 + Olaparib; first compound 0.253 µM,0.958
same,relative viability,IU1-47 + Olaparib; first compound 0.8 µM,0.802
same,relative viability,IU1-47 + Olaparib; first compound 2.53 µM,0.745
same,relative viability,IU1-47 + Olaparib; first compound 8 µM,0.641
same,relative viability,FG-4592 + Vorinostat; first compound 0.08 µM,0.299
same,relative viability,FG-4592 + Vorinostat; first compound 0.253 µM,0.245
same,relative viability,FG-4592 + Vorinostat; first compound 0.8 µM,0.228
same,relative viability,FG-4592 + Vorinostat; first compound 2.53 µM,0.208
same,relative viability,FG-4592 + Vorinostat; first compound 8 µM,0.214
same,relative viability,IU1-47 + Pemetrexed; first compound 0.08 µM,0.327
same,relative viability,IU1-47 + Pemetrexed; first compound 0.253 µM,0.308
same,relative viability,IU1-47 + Pemetrexed; first compound 0.8 µM,0.3
same,relative viability,IU1-47 + Pemetrexed; first compound 2.53 µM,0.306
same,relative viability,IU1-47 + Pemetrexed; first compound 8 µM,0.156
same,relative viability,FG-4592 + Pictilisib; first compound 0.253 µM,0.638
same,relative viability,FG-4592 + Pictilisib; first compound 2.53 µM,0.64
same,relative viability,FG-4592 + Pictilisib; first compound 8 µM,0.475

# — the supplement of paper PMC10307832
